Source: the SangsterLogP compilation
Each block holds one molecule with its values, some of them ahead of it.

Tests used:
[1] = method code SF-GLC, from DOI: 10.1016/s0380-1330(82)71969-0
[2] = method code SF-RC, from DOI: 10.1021/jm8013376, PMID: 19216563; conditions: pH 7.4
[3] = method code SF-HPLC, from DOI: 10.1021/je049947x
[4] = method code SF-AS, from PMID: 582409; conditions: pH 7.4
[5] = method code SF, from DOI: 10.1016/j.ejps.2007.04.003, PMID: 17540545; conditions: pH 3.0
[6] = method code SF-AS, from DOI: 10.1002/jps.2600751012, PMID: 3795027
[7] = method code SF, from DOI: 10.1016/0048-3575(89)90162-4
[8] = not given; remark: listed apart in the source
[9] = method code SF-TN, from DOI: 10.1002/jps.2600741210, PMID: 4087196; conditions: pH 7.4
[10] = method code SF-HPLC, from DOI: 10.1002/etc.5620170216
[11] = not given; remark: listed apart in the source
[12] = not given; remark: listed apart in the source
[13] = method code SF-RC, from PMID: 892676
[14] = not given; remark: listed apart in the source
[15] = method code SF-HPLC, from PMID: 18557421; conditions: pH 1.0
[16] = method code SF-RC, from DOI: 10.1002/syn.20147; conditions: pH 7.4
[17] = not given; remark: listed apart in the source
[18] = not given; remark: listed apart in the source
[19] = method code SF, from He, J.; Lang, L.; Zhang, Q.; Dong, L.; Chen, F.; Xu, G. (2010). Study on physicochemical properties of helicid. China Pharmacy, (1)23-25.; conditions: pH 2.0
[20] = method code SF, from DOI: 10.1248/cpb.34.4787
[21] = not given; remark: listed apart in the source
[22] = not given; remark: listed apart in the source
[23] = not given; remark: listed apart in the source
[24] = method code SF-GLC, from DOI: 10.1021/es60128a001
[25] = method code SF, from DOI: 10.1016/s0021-9673(00)89463-7; conditions: pH 2.4
[26] = method code SF-GLC, from DOI: 10.1002/etc.5620080702
[27] = method code SF-RC, from DOI: 10.1016/j.nucmedbio.2009.03.005, PMID: 19647167; conditions: pH 7.4
[28] = method code SF, from Kim, K.; Kim, J.; Kim, Y. (1997). Study on physicochemical properties of pesticides. II. Hanguk Nonghwa Hakhoe Chi, 40(1)76-79.
[29] = not given; remark: listed apart in the source
[30] = method code SF-RC, from DOI: 10.1016/j.apradiso.2005.06.012, PMID: 16131471; conditions: pH 7.5
[31] = method code SF-AS, from DOI: 10.1002/em.2850200210, PMID: 1505530
[32] = method code SF-AS, from DOI: 10.1081/jlc-100104900; conditions: pH 1.0
[33] = method code SF-AS, from DOI: 10.1021/jm00001a010, PMID: 7837239; conditions: pH 7.0
[34] = not given; remark: listed apart in the source
[35] = method code SF-RC, from PMID: 7826467
[36] = method code SF-AS, from DOI: 10.1211/0022357011776199, PMID: 11428660; conditions: pH 7.4
[37] = method code SF-HPLC, from DOI: 10.1021/jm970790w, PMID: 9548821; conditions: pH 7.4
[38] = not given; remark: listed apart in the source
[39] = method code SF-AS, from DOI: 10.1211/0022357001773940, PMID: 10757413; conditions: pH 7.4
[40] = not given; remark: listed apart in the source
[41] = from Maeno, S., Miura, I., Masuda, K., & Nagata, T. (1990). Mepanipyrim(KIF-3535), a new pyrimidine fungicide. In Brighton Crop Protection Conference, Pests and Diseases - 1990 (Vol. 2, pp. 415-422). …
[42] = not given; remark: listed apart in the source
[43] = method code SF-RC, from DOI: 10.1007/bf00263256, PMID: 6394334
[44] = not given; remark: listed apart in the source
[45] = method code SF, from DOI: 10.1248/cpb.18.708; conditions: pH 6.4
[46] = not given; remark: listed apart in the source
[47] = method code SF, from DOI: 10.1016/0223-5234(96)89550-x
[48] = not given; remark: listed apart in the source
[49] = not given; remark: listed apart in the source
[50] = method code SF-AS, from DOI: 10.1584/jpestics.8.69
[51] = not given; remark: listed apart in the source

Structure (SMILES): Clc1ccc(C(c2ccc(Cl)cc2)C(Cl)(Cl)Cl)cc1
- logP [1]: 5.1

Structure (SMILES): Oc1ccc2nc(-c3ccccc3)sc2c1
- logD [2]: 2.48

Structure (SMILES): Cc1cccc(C)c1N(Cn1cccn1)C(=O)CCl
- logP [3]: 2.22

Structure (SMILES): CCn1cc(C(=O)O)c(=O)c2cc3c(cc21)OCO3
- logD [5]: 1.01

Structure (SMILES): O=[N+]([O-])c1ccc(Oc2ccc(C(F)(F)F)cc2[N+](=O)[O-])cc1
- logP [11]: 3.7

Structure (SMILES): FCCCN1CCC[C@H]1COc1cccnc1
- logP [18]: 2.2

Structure (SMILES): Nc1ccc(C=Cc2ccc(N)cc2S(=O)(=O)O)c(S(=O)(=O)O)c1
- logP [22]: -1.7

Structure (SMILES): Clc1ccc(C(c2ccc(Cl)cc2)C(Cl)Cl)cc1
- logP [23]: 5.19

Structure (SMILES): CCOP(=S)(OCC)SC(CCl)N1C(=O)c2ccccc2C1=O (configuration not stated)
- logP [24]: 4.69

Structure (SMILES): CCOP(=S)(OCC)Oc1cc(C(F)(F)F)nn1-c1ccccc1
- logP [28]: 5.24

Structure (SMILES): O=c1[nH]c2c(c(=O)n1C1CCCCC1)CCC2
- logP [29]: 1.9

Structure (SMILES): COc1ccc2[nH]c(I)c(CCNC(C)=O)c2c1
- logD [30]: 2.52

Structure (SMILES): O=C1c2ccccc2-c2cc([N+](=O)[O-])ccc21
- logP [31]: 3.06

Structure (SMILES): C=CCn1cnc2c(=O)[nH]c(Nc3ccccc3)nc21
- logD [33]: 1.75

Structure (SMILES): COc1ccc2c(C)cc(=O)n3c(C)cc1c23
- logP [35]: 2.84

Structure (SMILES): CCOP(=O)(OCC)Oc1cc(C)nc(NC(C)C)n1
- logP [38]: 2.07

Structure (SMILES): CC#Cc1cc(C)nc(Nc2ccccc2)n1
- logP [41]: 3.42

Structure (SMILES): COc1cc(Cc2cnc(N)nc2N)c(I)c(OC)c1OC
- logP [42]: 1.79

Structure (SMILES): Cc1cc2cccc(C)c2cc1C
- logP [44]: 4.73

Structure (SMILES): Cc1cc(C)cc(NS(=O)(=O)c2ccc(N)cc2)c1
- logD [45]: 2.52

Structure (SMILES): O=C(OCc1ccccc1)c1ccc(O)cc1
- logP [51]: 3.56

Next, values leading:

- logP: 1.43
Structure (SMILES): N#Cc1ccc(NS(=O)(=O)c2ccc(N)cc2)cc1

- logD [4]: 1.19
Structure (SMILES): COc1ccc(-c2nc3c(N)nc(N)nc3nc2N)cc1

- logP [6]: 2.4
Structure (SMILES): O=C(OCc1ccccc1)c1cccnc1

- logP [7]: 3.24
Structure (SMILES): OC1(c2cc(Cl)ccc2Cl)CCCCC1n1cncn1 (configuration not stated)

- logP [8]: 3.6
Structure (SMILES): Fc1cccc(-n2nnnc2Oc2ccccc2)c1

- logD [9]: 1.8
Structure (SMILES): CCCCOC(=O)[C@@H](N)Cc1ccc(O)cc1

- logP [10]: 4.68
Structure (SMILES): c1ccc2cc3ccccc3cc2c1

- logP [12]: 3.95
Structure (SMILES): O=C(O)c1cc(-c2ccc(F)cc2F)ccc1O

- logP [13]: 2.93
Structure (SMILES): O=C(Nc1ccc(Cl)cc1)Nc1ccc(Cl)c(C(F)(F)F)c1

- logP [14]: 2.91
Structure (SMILES): Cn1ccc2cc(-c3nc4ccc(F)nc4o3)cnc21

- logD [15]: -1.06
Structure (SMILES): COc1c(O)cc2c(c1O)C1OC(CO)C(O)C(O)C1OC2=O (configuration not stated)

- logD [16]: 3.4
Structure (SMILES): Cc1cc(C#N)cc(C#Cc2csc(C)n2)c1

- logP [17]: 3.5
Structure (SMILES): O=C(Oc1ccccc1)c1ccccc1

- logD [19]: -1.08
Structure (SMILES): O=Cc1ccc(O[C@@H]2O[C@H](CO)[C@@H](O)[C@@H](O)[C@H]2O)cc1

- logP [20]: 3.75
Structure (SMILES): O=C(O)c1ccc(-c2ccccc2)cc1

- logP [21]: 1.2
Structure (SMILES): CCCCCCn1c(=O)c2c(ncn2C)n(C)c1=O

- logD [25]: 3.12
Structure (SMILES): O=C(O)c1ccc2oc3ccccc3c(=O)c2c1

- logP [26]: 4.54
Structure (SMILES): Clc1ccc(C2OC2c2ccccc2)cc1 (configuration not stated)

- logD [27]: 2.11
Structure (SMILES): CO/N=C1/C=C(C#Cc2cccc(F)n2)CCC1

- logD [32]: 2.86
Structure (SMILES): CC(C(=O)O)c1ccc(C(=O)c2ccccc2)s1 (configuration not stated)

- logP [34]: 0.63
Structure (SMILES): CCOC(=O)CCCn1c(=O)oc2ccccc2c1=O

- logD [36]: 0.51
Structure (SMILES): Cc1ncc([N+](=O)[O-])n1CCOC(=O)CN1CCCCC1

- logD [37]: 0.53
Structure (SMILES): CC1(C)O[C@@H]2[C@@H](CO[C@@]3(COS(N)(=O)=O)OC(C)(C)O[C@@H]23)O1

- logD [39]: -0.32
Structure (SMILES): CCc1c(O)c(=O)ccn1CCCn1ccnc1

- logP [40]: 2.89
Structure (SMILES): CC(C)Cn1cnc2c(N)nc3ccccc3c21

- logP [43]: 1.76
Structure (SMILES): CC(=NO)C(C)(C)NCCCNC(C)(C)C(C)=NO

- logP [46]: 6.38
Structure (SMILES): Cc1cc(Cc2cc(Cl)ccc2Cl)c(Cl)cc1Cl

- logP [47]: 0.84
Structure (SMILES): O=C(Nc1ccn(C2CSC(CO)O2)c(=O)n1)c1cccnc1 (configuration not stated)

- logP [48]: 2.62
Structure (SMILES): CCNc1ccc(C(=O)OCCN(C)C)cc1

- logP [49]: 0.98
Structure (SMILES): CCn1cc(C(=O)O)c(=O)c2cc([N+](=O)[O-])c(NCCO)cc21

- logP [50]: 4.51
Structure (SMILES): ClC(Cl)C(c1ccccc1)c1ccccc1
